From US20020037872A1, “N6 heterocyclic 5' modified adenosine derivatives” (CV Therapeutics, Inc., priority 1999, published 2002)

Key:
A1 adenosine receptor [1] = molecular target: T1, A1 adenosine receptor (Mesocricetus auratus, UniProt A0A1U8BVR4); assay: [35S]GTPγS binding assay, A1-agonist stimulated; type: biochemical, hamster; details: […], agonist stimulated [35S]GTPγS binding, CPA = 100%
T1 construct: endogenous in cells; host or cells: DDT1 (DDT1 MF-2) hamster vas deferens smooth muscle cells
T1 sequence (A0A1U8BVR4 1-326): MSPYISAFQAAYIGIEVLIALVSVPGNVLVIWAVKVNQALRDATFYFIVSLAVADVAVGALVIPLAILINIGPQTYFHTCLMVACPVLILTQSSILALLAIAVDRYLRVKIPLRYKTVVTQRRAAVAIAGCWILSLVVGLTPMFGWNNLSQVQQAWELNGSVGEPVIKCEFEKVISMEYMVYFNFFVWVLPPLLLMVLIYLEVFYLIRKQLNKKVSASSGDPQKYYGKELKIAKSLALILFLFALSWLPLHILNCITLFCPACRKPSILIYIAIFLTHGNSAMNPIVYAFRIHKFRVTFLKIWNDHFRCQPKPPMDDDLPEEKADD
Procedure, shortened: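 Membranes in 50 mM Tris-HCl pH 7.4, 5 mM MgCl2, 100 mM NaCl, 1 mM DTT used for A1-agonist-stimulated [35S]GTPγS binding, read by filtration. Nonspecific binding defined with 10 μM GTPγS. Saturation runs used 0.5 nM [35S]GTPγS with 0.5–1000 nM GTPγS.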

A1 adenosine receptor [2] = molecular target: T2, A1 adenosine receptor (Cavia porcellus, UniProt P47745); assay: Guinea pig isolated perfused heart: S-H interval, heart rate, atrial MAP
T2 construct: The hearts were quickly removed and rinsed in ice-cold Krebs-Henseleit solution; from tissue; host or cells: guinea pig isolated perfused heart
T2 sequence (P47745 1-326): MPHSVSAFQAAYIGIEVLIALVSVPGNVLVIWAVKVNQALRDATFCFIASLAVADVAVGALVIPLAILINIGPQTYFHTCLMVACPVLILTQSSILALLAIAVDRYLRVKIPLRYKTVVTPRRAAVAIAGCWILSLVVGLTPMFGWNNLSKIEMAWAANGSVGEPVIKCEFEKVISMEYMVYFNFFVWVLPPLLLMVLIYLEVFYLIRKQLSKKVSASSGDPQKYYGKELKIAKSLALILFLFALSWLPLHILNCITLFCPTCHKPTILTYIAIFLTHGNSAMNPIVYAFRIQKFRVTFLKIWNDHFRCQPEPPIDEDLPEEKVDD
Procedure: Guinea pigs of either sex weighing 250-300 g were anesthetized with methoxyflurane and killed by cervical dislocation. The hearts were quickly removed and rinsed in ice-cold Krebs-Henseleit solution. The aorta was cannulated and the heart retrogradely perfused at a constant flow of 10 ml min^−1 with modified Krebs-Henseleit solution containing (mM): NaCL 117.9, KCl 4.8, CaCl2 2.5, MgSO4 1.18, KH2PO4 1.2, Na2EDTA 0.5, ascorbic acid 0.14, glucose 5.5, pyruvic acid (sodium salt) 2.0, and NaHCO3 25. The K—H solution was oxygenated with 95% oxygen and 5% CO2, pH 7.4, and temperature maintained at 36° C.
Hearts were electrically paced at a cycle length of 290-300 ms (unless otherwise indicated) using a bipolar electrode placed on the right atrium or ventricle. The stimulator, an interval generator (Model 1830, WPI, Sarasota, Fla., U.S.A.) delivered stimuli through a stimulus isolation unit (Model 1880, WPI) as square wave pulses of 3 ms in duration and at least twice the threshold intensity. The stimulus-to-His bundle (S—H) interval was used as index of AV nodal conduction time and was measured on-line during constant atrial pacing from microcomputer with a DT-208 1A interface board (Axon Instruments, Burlingame, Calif., U.S.A.) In experiments to study the chronotropic effect (effect on heart rate) of A1 AdoR agonists, the hearts were allowed to beat spontaneously. An atrial electrogram was used to record the electrical activity of the atria and to measure the heart rate.
Monophasic action potentials (MAP) were recorded using a pressure contact silver-silver chloride electrode (Langendorf Probe, EP Technologies, Inc., Sunnyvale, Calif., U.S.A.) placed on the surface of the left atrium. […] Signals were considered adequate if they were stable for at least 5 min and the amplitudes of the MAPs exceeded 10 mV. The data were digitized at 2 kHz by a DT-2801A digitizing board (Data Translation, Marlboro, Mass., U.S.A.) and stored using the Snapshot data acquisition program (Snapshot Storage Scope, HEM Data Corp., Southfield, Mich., U.S.A.) for later analysis. The duration of the atrial monophasic action potential was measured at 90% repolarization (MAPD90), using the Snapshot program. After completion of dissection and instrumentation, the hearts were allowed to equilibrate for 30 min before the experiments were begun. Whenever the baseline and post-intervention (washout) values differed by more than 15% the data were discarded. Approximately 60-70% of the experiments conformed with this criteria.

Structure (SMILES): CNC(=O)OC[C@H]1O[C@@H](n2cnc3c(N[C@@H]4CCOC4)ncnc32)[C@H](O)[C@@H]1O [Compound 6, (5-16[((3R)oxolan-3-yl)aminolpurin-9-yl)(3S,2R,4R,5R)-3,4dihydroxyoxolan-2yl)methoxyl-N-methylearboxamide]
- Emax (A1 adenosine receptor [1]): 48%
- agonist character at A1 AdoR (A1 adenosine receptor [2]): true partial A1 AdoR agonist
- antagonism of S-H interval prolongation caused by full agonist CPA (A1 adenosine receptor [2]; Compound 6 2 and 10 μm, atrial cycle length 300 msec, FIG. 3): antagonizes the negative dromotropic effect
- effect on atrial monophasic action potential (A1 adenosine receptor [2]; FIG. 1 panel B): no effect
- effect on AV nodal conduction time (S-H interval) (A1 adenosine receptor [2]; FIG. 1 panel C): concentration-dependent and significant increase in AV nodal conduction time
- second-degree AV block (A1 adenosine receptor [2]; FIG. 1 panel C): without causing second-degree AV block at any concentration tested
- EC50 (A1 adenosine receptor [2]; guinea pig isolated perfused hearts, read-out: EC50 to prolong S-H interval (negative dromotropic effect)): 2800 ± 1300 nM
- selectivity: S-H interval prolongation versus increase of coronary conductance (A1 adenosine receptor [2]; ratio of potencies): at least 10 fold
- effect on heart rate (chronotropic) (A1 adenosine receptor [2]; spontaneously beating hearts, FIG. 1 panel A): did not slow heart rate
